Data on 32 compounds can be found in ChEMBL document CHEMBL1134914, “Acyl dipeptides as reversible caspase inhibitors. Part 1: initial lead optimization” (Bioorg Med Chem Lett, 2002).

SMILES strings stand for the structures. pIC50: −log10 of the molar value.

The target in one assay is Caspase-1 (Mus musculus) (UniProt P29452).
In another assay the target is Caspase-8 (Homo sapiens, UniProt Q14790). The assay can be described thus: Inhibitory concentration against caspase-8.
For the next assay, the target named is T1, Caspase-6 (Homo sapiens, UniProt P55212).
T1 sequence (P55212 whole entry): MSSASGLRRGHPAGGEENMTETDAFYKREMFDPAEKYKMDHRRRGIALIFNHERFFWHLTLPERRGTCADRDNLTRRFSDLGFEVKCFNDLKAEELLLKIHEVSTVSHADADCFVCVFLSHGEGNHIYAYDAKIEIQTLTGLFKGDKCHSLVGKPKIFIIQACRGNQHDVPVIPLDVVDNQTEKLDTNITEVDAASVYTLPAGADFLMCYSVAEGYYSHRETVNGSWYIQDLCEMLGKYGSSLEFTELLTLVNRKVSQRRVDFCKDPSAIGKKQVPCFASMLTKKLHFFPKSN
In words: Inhibitory concentration required against caspase-6.

A further assay concerns the target T2, Caspase-7 (Homo sapiens, UniProt P55210).
T2 sequence (P55210 whole entry): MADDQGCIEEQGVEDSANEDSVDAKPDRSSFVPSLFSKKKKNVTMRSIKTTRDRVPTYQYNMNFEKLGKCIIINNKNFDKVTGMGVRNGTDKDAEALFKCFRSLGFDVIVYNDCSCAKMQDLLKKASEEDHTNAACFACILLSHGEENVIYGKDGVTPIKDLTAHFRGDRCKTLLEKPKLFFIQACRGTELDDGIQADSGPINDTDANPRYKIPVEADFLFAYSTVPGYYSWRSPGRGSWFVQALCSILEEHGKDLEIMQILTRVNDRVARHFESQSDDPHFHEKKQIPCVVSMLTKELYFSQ
In words: Inhibitory concentration against caspase-7.

A further assay concerns the target T3, Caspase-3 (Homo sapiens, UniProt P42574).
T3 sequence (P42574 whole entry): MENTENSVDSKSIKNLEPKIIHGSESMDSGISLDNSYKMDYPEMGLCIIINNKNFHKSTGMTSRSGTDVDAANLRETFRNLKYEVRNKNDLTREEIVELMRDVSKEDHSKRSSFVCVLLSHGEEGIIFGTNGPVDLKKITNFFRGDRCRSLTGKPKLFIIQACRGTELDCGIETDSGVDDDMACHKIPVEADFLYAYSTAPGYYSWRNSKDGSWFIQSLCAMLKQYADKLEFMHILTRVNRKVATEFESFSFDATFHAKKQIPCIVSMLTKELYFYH
The assay can be described thus: Inhibitory concentration against caspase-3.

Caspase-8, sequence (Q14790 217-374 limits assumed): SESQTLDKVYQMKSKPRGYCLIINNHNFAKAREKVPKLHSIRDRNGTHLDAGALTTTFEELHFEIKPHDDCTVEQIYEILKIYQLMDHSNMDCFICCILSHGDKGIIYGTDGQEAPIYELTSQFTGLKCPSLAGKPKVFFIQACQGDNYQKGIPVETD
Caspase-8, sequence (Q14790 385-479 limits assumed): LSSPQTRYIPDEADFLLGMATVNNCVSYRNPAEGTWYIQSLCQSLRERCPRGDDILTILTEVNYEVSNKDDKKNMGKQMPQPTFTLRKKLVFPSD
Caspase-1 (Mus musculus), sequence (P29452 whole entry, looked up): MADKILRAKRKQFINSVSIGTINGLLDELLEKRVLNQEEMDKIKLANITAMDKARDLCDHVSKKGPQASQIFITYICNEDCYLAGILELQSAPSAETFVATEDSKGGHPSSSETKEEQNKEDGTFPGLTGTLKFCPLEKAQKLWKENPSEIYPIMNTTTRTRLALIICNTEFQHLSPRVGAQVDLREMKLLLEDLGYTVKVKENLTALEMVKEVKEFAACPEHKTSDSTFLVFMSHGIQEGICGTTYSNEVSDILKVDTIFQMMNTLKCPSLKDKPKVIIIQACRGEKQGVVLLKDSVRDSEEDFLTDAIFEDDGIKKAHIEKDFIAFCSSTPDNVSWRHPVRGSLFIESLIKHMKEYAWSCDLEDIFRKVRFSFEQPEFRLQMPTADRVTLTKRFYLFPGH

Take `CC(C)C[C@H](NC(=O)COc1nccc2ccccc12)C(=O)N[C@H]1CC(=O)OC1O` (stereo partly drawn): the pIC50 (commonly −log10 of the IC50, conventionally taken in molar units) on Caspase-1 (Mus musculus) is 4.35; on Caspase-8, under 4.30; against Caspase-6, under 4.30; against Caspase-7 it was 4.46; at Caspase-3, 5.80.

With `CC(C)C[C@H](NC(=O)COc1ccccc1)C(=O)N[C@H]1CC(=O)OC1O` (stereo partly drawn), the negative logarithm of the IC50 (pIC50) on Caspase-1 (Mus musculus) was under 5.00; against Caspase-8 it was under 5.00; against Caspase-6 it was under 4.30; against Caspase-7 it was under 5.00; against Caspase-3, 5.47.

In the case of `CC(C)C[C@H](NC(=O)CCCc1ccc2ccccc2c1)C(=O)N[C@H]1CC(=O)OC1O` (stereo partly drawn), the pIC50 is 5.74 against Caspase-1 (Mus musculus); under 4.30 against Caspase-8; 4.84 against Caspase-6; 4.74 on Caspase-7; 5.56 against Caspase-3.

With `CC(C)C[C@H](NC(=O)c1cccc2ccccc12)C(=O)N[C@H]1CC(=O)OC1O` (stereo partly drawn), the negative-log IC50 (pIC50) at Caspase-8, against Caspase-6, on Caspase-7 and at Caspase-3 was under 5.00 in each case.

Consider `CC(C)C[C@H](NC(=O)CCOc1ccc2ccccc2c1)C(=O)N[C@H]1CC(=O)OC1O` (stereo partly drawn), for which the pIC50 was 5.88 on Caspase-1 (Mus musculus); 4.82 on Caspase-8; 5.23 against Caspase-6; 5.02 on Caspase-7; 6.04 against Caspase-3.

`CC(C)C[C@H](NC(=O)COc1ccnc2ccccc12)C(=O)N[C@H]1CC(=O)OC1O` (stereo partly drawn): the pIC50 against Caspase-1 (Mus musculus) was 4.45; against Caspase-8, under 4.30; against Caspase-6 it was under 4.30; against Caspase-7 it was 5.34; at Caspase-3 it was 6.63.

On to `CC(C)[C@@H](NC(=O)OCc1ccccc1)C(=O)C[C@H]1CC(=O)OC1O` (stereo partly drawn), for which the pIC50 was 5.23 against Caspase-1 (Mus musculus); 4.92 on Caspase-8; 5.00 against Caspase-6; 5.17 on Caspase-7; 5.76 against Caspase-3.

In the case of `CC(C)C[C@H](NC(=O)Cc1ccc2ccccc2c1)C(=O)N[C@H]1CC(=O)OC1O` (stereo partly drawn), the pIC50 at Caspase-1 (Mus musculus) was 5.50; against Caspase-8, 4.90; at Caspase-6, 4.95; at Caspase-7, under 5.00; at Caspase-3 it was 6.07.

On to `CC(C)C[C@H](NC(=O)COc1ccccc1OCc1ccccc1)C(=O)N[C@H]1CC(=O)OC1O` (stereo partly drawn), for which the pIC50 is 5.62 on Caspase-1 (Mus musculus); 5.36 on Caspase-8; 5.01 on Caspase-6; 5.66 at Caspase-7; 6.65 against Caspase-3.

`CC(C)C[C@H](NC(=O)c1ccc2ccccc2c1)C(=O)N[C@H]1CC(=O)OC1O` (stereo partly drawn): the negative-log IC50 (pIC50) was 5.76 on Caspase-1 (Mus musculus); under 5.00 against Caspase-8; under 5.00 against Caspase-6; under 5.00 against Caspase-7; 5.17 against Caspase-3.

With `CC(C)C[C@H](NC(=O)COc1cccc2cccnc12)C(=O)N[C@H]1CC(=O)OC1O` (stereo partly drawn), the pIC50 is 4.86 at Caspase-1 (Mus musculus); 5.65 at Caspase-8; 4.90 at Caspase-6; 5.82 at Caspase-7; 6.83 against Caspase-3.

With `CC(C)C[C@H](NC(=O)CCc1cccc2ccccc12)C(=O)N[C@H]1CC(=O)OC1O` (stereo partly drawn), the pIC50 on Caspase-1 (Mus musculus) was 5.73; on Caspase-8 it was 4.91; against Caspase-6 it was 5.38; against Caspase-7 it was 5.06; against Caspase-3 it was 5.80.

For `CC(C)C[C@H](NC(=O)/C=C/c1ccccc1)C(=O)N[C@H]1CC(=O)OC1O` (stereo partly drawn), the negative-log IC50 (pIC50) against Caspase-1 (Mus musculus) was 6.19; on Caspase-8, 4.87; at Caspase-6, 5.30; at Caspase-7, 5.01; on Caspase-3, 5.86.

Consider `CC(C)C[C@H](NC(=O)COc1cccc2cnccc12)C(=O)N[C@H]1CC(=O)OC1O` (stereo partly drawn), for which the pIC50 is 5.29 on Caspase-1 (Mus musculus); 5.44 against Caspase-8; 4.37 on Caspase-6; 5.46 against Caspase-7; 6.39 at Caspase-3.

On to `CC(C)C[C@H](NC(=O)CCSc1ccc2ccccc2c1)C(=O)N[C@H]1CC(=O)OC1O` (stereo partly drawn), for which the pIC50 against Caspase-1 (Mus musculus) was 6.21; against Caspase-8, 4.82; on Caspase-6, 5.79; against Caspase-7 it was 5.23; against Caspase-3, 6.08.

Consider `CC(C)C[C@H](NC(=O)COc1ccccc1Cc1ccccc1)C(=O)N[C@H]1CC(=O)OC1O` (stereo partly drawn), for which the pIC50 on Caspase-1 (Mus musculus) is 6.28; against Caspase-8, 5.22; on Caspase-6, 5.00; against Caspase-7 it was 5.47; against Caspase-3, 6.31.

With `CC(C)C[C@H](NC(=O)CCOc1cccc2ccccc12)C(=O)N[C@H]1CC(=O)OC1O` (stereo partly drawn), the pIC50 against Caspase-8 is 5.01; on Caspase-6 it was 6.52; on Caspase-7, 5.86; on Caspase-3, 7.23.

With `CC(C)C[C@H](NC(=O)C(C)Oc1cccc2ccccc12)C(=O)N[C@H]1CC(=O)OC1O` (stereo partly drawn), the pIC50 at Caspase-8 was 5.61; at Caspase-6, 5.89; against Caspase-7, 5.88; against Caspase-3, 6.42.

Consider `CC(C)C[C@H](NC(=O)CCSc1cccc2ccccc12)C(=O)N[C@H]1CC(=O)OC1O` (stereo partly drawn), for which the pIC50 against Caspase-1 (Mus musculus) is 6.25; on Caspase-8, 4.79; on Caspase-6 it was 5.57; against Caspase-7, 5.44; against Caspase-3, 6.39.

`CC(C)C[C@H](Nc1ccccc1)C(=O)N[C@H]1CC(=O)OC1O` (stereo partly drawn): the pIC50 on Caspase-1 (Mus musculus) was under 5.00; on Caspase-8, under 5.00; on Caspase-6, under 4.30; at Caspase-7 it was under 5.00; at Caspase-3, 5.47.

Consider `CC(C)C[C@H](NC(=O)C(C)Oc1cccc2cc(Br)ccc12)C(=O)N[C@H]1CC(=O)OC1O` (stereo partly drawn), for which the pIC50 on Caspase-8 was 4.54; against Caspase-6 it was 4.86; on Caspase-7, 4.49; at Caspase-3, 5.32.

As to `CC(C)C[C@H](NC(=O)CC(=O)c1ccc2ccccc2c1)C(=O)N[C@H]1CC(=O)OC1O` (stereo partly drawn), the pIC50 is 6.27 against Caspase-1 (Mus musculus); 5.28 on Caspase-8; 4.99 against Caspase-6; 5.13 on Caspase-7; 5.85 against Caspase-3.

Consider `CC(C)C[C@H](NC(=O)COc1cccc2c1CCCC2)C(=O)N[C@H]1CC(=O)OC1O` (stereo partly drawn), for which the pIC50 was 5.74 on Caspase-1 (Mus musculus); 5.76 on Caspase-8; 4.93 at Caspase-6; 5.56 against Caspase-7; 6.49 against Caspase-3.

For the compound `CC(C)C[C@H](NC(=O)COc1cccc2ccccc12)C(=O)N[C@H]1CC(=O)OC1O` (stereo partly drawn), the pIC50 is 6.11 at Caspase-8, 6.03 at Caspase-6, 5.74 at Caspase-7 and 6.87 against Caspase-3.

Consider `CC(C)C[C@H](NC(=O)Cc1cccc2ccccc12)C(=O)N[C@H]1CC(=O)OC1O` (stereo partly drawn), for which the negative-log IC50 (pIC50) was 5.49 against Caspase-1 (Mus musculus), 5.14 against Caspase-7 and 6.07 at Caspase-3.

`CC(C)C[C@H](NC(=O)CC(=O)c1cccc2ccccc12)C(=O)N[C@H]1CC(=O)OC1O` (stereo partly drawn): the pIC50 is 6.39 against Caspase-1 (Mus musculus); 4.95 against Caspase-8; 4.93 on Caspase-6; 4.95 against Caspase-7; 6.01 against Caspase-3.

For the compound `CC(C)C[C@H](NC(=O)COc1ccccc1C1CCCC1)C(=O)N[C@H]1CC(=O)OC1O` (stereo partly drawn), the negative-log IC50 (pIC50) at Caspase-1 (Mus musculus) was 6.27; at Caspase-8, 5.73; against Caspase-6, 5.47; on Caspase-7 it was 5.83; on Caspase-3 it was 6.71.

Take `CC(C)C[C@H](NC(=O)COc1ccc2c(c1)CCCC2)C(=O)N[C@H]1CC(=O)OC1O` (stereo partly drawn): the pIC50 was 5.59 against Caspase-1 (Mus musculus); 5.31 at Caspase-8; 4.54 at Caspase-6; 5.64 against Caspase-7; 6.79 against Caspase-3.

Regarding `CC(C)C[C@H](NC(=O)COc1ccc(Cc2ccccc2)cc1)C(=O)N[C@H]1CC(=O)OC1O` (stereo partly drawn), the negative logarithm of the IC50 (pIC50) is 5.74 on Caspase-1 (Mus musculus); 5.33 at Caspase-8; 4.72 against Caspase-6; 5.36 against Caspase-7; 6.46 at Caspase-3.

Take `CC(C)C[C@H](NC(=O)COc1ccc(Cl)c2ccccc12)C(=O)N[C@H]1CC(=O)OC1O` (stereo partly drawn): the pIC50 against Caspase-1 (Mus musculus) was 6.37; on Caspase-8, 5.77; against Caspase-6, 4.92; on Caspase-7, 5.47; at Caspase-3, 6.64.

As to `CC(C)C[C@H](NC(=O)COc1ccccc1-c1ccccc1)C(=O)N[C@H]1CC(=O)OC1O` (stereo partly drawn), the pIC50 against Caspase-1 (Mus musculus) was 6.20; against Caspase-8, 5.77; on Caspase-6 it was 6.14; at Caspase-7, 5.69; against Caspase-3, 7.02.

As for `CC(C)C[C@H](NC(=O)COc1ccc(C2CCCC2)cc1)C(=O)N[C@H]1CC(=O)OC1O` (stereo partly drawn), the pIC50 against Caspase-1 (Mus musculus) is 5.66; against Caspase-8 it was 5.23; against Caspase-6 it was 4.29; on Caspase-7 it was 5.28; against Caspase-3, 6.50.
